# Experiment: Release profile of fluorescent molecules from PEG-PLGA double-emulsion hairy microparticles
# Type: physicochemical
# Conditions: 0.1 M PBS buffer pH 7.4, 37° C., fluorescence in supernatant
# Description: FIGS. 2A-2B. Simulated drug releasing profile from PEG-PLGA double emulsions-based hairy microparticles using two different fluorescent molecules. (FIG. 2A) Loaded Alexa Fluor® 647 (1025.2 g/mol) and (FIG. 2B) GFP (27 kDa) were released depending on the time and detected in supernatant.
# To test drug encapsulating and releasing properties, we use two different sizes of fluorescent molecules (Alexa Fluor® 647, 1025.2 g/mol and GFP, 27 kDa). We load these molecules into most inner phase and generate double emulsions through two-step sequential emulsification. After fully drying of DCM, hairy microparticles are collected and washed 3 times by centrifugation at 3000 rcf for 1 min with deionized water. To determine the release profile, we place a sample in 0.1 M PBS buffer (pH=7.4, 5 ml total) at 37° C. and monitor the release of the fluorescent molecules. The fluorescent intensity in supernatant are measured using a BioTek plate reader. FIGS. 2A-2B show the release profile of both Alexa Fluor 647 and GFP. Based on the fluorescent intensity of end point, about 22-26% of Alexa Fluor 647 and 19-35% of GFP are released (compared to the amount injected into the emulsions) from microcapsules.
substance,measurement,value
Alexa Fluor 647,"released from microcapsules, compared to the amount injected into the emulsions, based on fluorescent intensity of end point",22-26%

# From US20250332113A1, “ADHESIVE PARTICLES FOR ACTIVE DELIVERY” (THE TRUSTEES OF THE UNIVERSITY OF PENNSYLVANIA, priority 2022, published 2025)
